Paper PMC6984391, “Anion carriers as potential treatments for cystic fibrosis: transport in cystic fibrosis cells, and additivity to channel-targeting drugs” (Chemical Science, 2019)

Key:
[1] = test system: F508del-CFTR-YFP-FRT cells; test: Anionophore anion transport in F508del-CFTR-YFP-FRT cells; type: cell-based, Fischer rat; settings: for anion transport in control F508del-CFTR-YFP-FRT cells / additivity of anion transport to rescue of F508del-CFTR: 50 μM; for anion transport in control F508del-CFTR-YFP-FRT cells: cells grown at 37 °C; for additivity of anion transport to rescue of F508del-CFTR: 27 °C or lumacaftor rescue; for anion transport when added together with forskolin and ivacaftor: anionophore 50 μM, forskolin 10 μM, ivacaftor 1 μM
Excerpt: To learn whether anionophores are additive to small molecules that rescue disease-causing CFTR variants, we used FRT cells co-expressing F508del-CFTR, the predominant CF mutation and YFP-H148Q/I152L (F508del-CFTR-YFP-FRT cells).[28] To rescue the plasma membrane expression of F508del-CFTR, we used low temperature or the clinically-licensed CFTR corrector lumacaftor,[38],[39] while to increase its activity, we used the clinically-licensed CFTR potentiator ivacaftor.[40]
(§1) FRT cells stably expressing the halide sensor YFP-H148Q/I152L6 were generous gifts of AS Verkman (University of California, San Francisco), while CFBE41o- cells7 stably expressing YFP (YFP-CFBE cells) were a generous gift of LJV Galietta (Telethon Institute for Genetics and Medicine). YFP-FRT cells were cultured as described previously for FRT cells8 except that media contained 10% fetal bovine serum, 2 mM L-glutamine and the selection agent G418 (YFP-FRT cells, 0.5 mg ml-1; WT-CFTR-YFP-FRT cells, 0.75 mg ml-1) or zeocin […]
(F508del-CFTR-YFP-FRT cells, 0.5 mg ml-1). […]
U ml-1 penicillin and 100 mg ml-1 streptomycin. All cells were incubated at 37 °C in a humidified atmosphere with 5% CO2.
For fluorescence microplate reader studies, cells were seeded in 96-well plates and grown in culture media at 37 °C in a humidified atmosphere with 5% CO2 for 3 – 4 days until 90% confluent. To promote the plasma membrane expression of F508del-CFTR, prior to study F508del-YFP-FRT cells were either cultured at 27 °C for 24 h or treated with lumacaftor (3 µM) in YFP-FRT media containing 1% fetal bovine serum at 37 °C for 24 h. […]
(§2) Fluorescence plate reader assay […]
quenching of YFP fluorescence at 37 °C using a microplate reader following the method of Galietta et al..9 The microplate reader (model: FLUORstar Omega; BMG LABTECH Ltd., Aylesbury, UK) was equipped with a syringe pump and excitation (500 ± 10 nm) and emission (535 ± 15 nm) filters (Chroma Technology GmbH, Olching, Germany). After washing cells twice with PBS (composition (mM): 137 NaCl, 2.7 KCl, 8.1 Na2HPO4, 1.5 KH2PO4, 1 CaCl2 and 0.5 MgCl2, pH 7.40), cells were incubated with test anionophores (1 – 50 µM) or the vehicle (DMSO [0.1 – 0.5% v v-1]) in 40 µl of PBS for 10 – 120 minutes according to the experimental design. Other compounds, including forskolin, ivacaftor and channel inhibitors were added to […]
(§3) the PBS bathing cells 10 minutes prior to PBS iodide addition, whereas UTP was added to cells with the PBS iodide solution. Fluorescence was measured for 14 seconds; 2 seconds before and 12 seconds after injection of 110 µl PBS iodide solution (137 mM Cl- replaced by I-) into each well (to obtain a final concentration of I- of 100 mM).
We expressed cell fluorescence values (F) relative to the fluorescence value immediately before I- injection (F0), excluding the initial decrease, which likely represents the quenching of extracellular YFP released from cells and signal reduction accompanying the increase in solution volume bathing cells. To quantify anion transport by test anionophores, we determined the initial slope of the fluorescence decay following I - addition by fitting first order exponential functions to the last 12 seconds of each fluorescence recording. In each experim ent, n values represent the mean of two replicates and all treatments were tested at least three times using different microplates. […]
FRT cells was selected and the cells were perfused with (i) PBS for 5 minutes then (ii) PBS containing I- (10 mM) (made by preparing PBS with 127 mM NaCl to maintain osmolarity) for 5 minutes and finally (iii) PBS for 30 minutes to remove thoroughly I- from the perfusion chamber. YFP-FRT cells were repeatedly treated with I- (10 mM) and then washed with PBS […]
During all interventions, the rate of solution perfusion was 8 – 10 ml min-1; temperature was 37 °C and except for the first 15 minutes of PBS washing, no data were collected between cycles of I- perfusion and PBS […]
For cell fluorescence measurements, we used the Volocity (Improvision) data […]

WT-CFTR-YFP-FRT cells = test: Anionophore anion transport in WT-CFTR-YFP-FRT cells; type: cell-based, Fischer rat; settings: anionophore 50 μM, CFTRinh-172 10 μM
Excerpt: Next, we sought to learn whether the activities of 11, 12, 15, and 19 are additive to that of CFTR. For these studies, we used FRT cells co-expressing wild-type human CFTR and YFP-H148Q/I152L (WT-CFTR-YFP-FRT cells).[28] […] This latter effect is difficult to explain and merits further investigation.
as §1, with “zeocin (F508del-CFTR-YFP-FRT cells, 0.5 mg ml-1). YFP-CFBE cells were cultured in minimal essential medium (MEM) supplemented with 10% fetal bovine serum, 2 mM L-glutamine, 100 U ml-1 penicillin and 100 mg ml-1 streptomycin.” for “zeocin”
as §2
quenching of YFP fluorescence at 37 °C using a microplate reader following the method of Galietta et al..9 The microplate reader (model: FLUORstar Omega; BMG LABTECH Ltd., Aylesbury, UK) was equipped with a syringe pump and excitation (500 ± 10 nm) and emission (535 ± 15 nm) filters (Chroma Technology GmbH, Olching, Germany). […]
as §3
We expressed cell fluorescence values (F) relative to the fluorescence value immediately before I- injection (F0), excluding the initial decrease, which likely represents the quenching of extracellular YFP released from cells and signal reduction accompanying the increase in solution volume bathing cells. […]

CCOC(=O)[C@]12CC[C@@H](NC(=S)Nc3ccc([N+](=O)[O-])cc3)C[C@@H]1C[C@@H](NC(=S)Nc1ccc([N+](=O)[O-])cc1)CC2 [Compound 12]
anion transport in control F508del-CFTR-YFP-FRT cells [1]: mediated anion transport | additivity of anion transport to rescue of F508del-CFTR [1]: additive | anion transport when added together with forskolin and ivacaftor [1]: increased further the amount of anion transport | effect of CFTRinh-172 on anion transport by anionophore (WT-CFTR-YFP-FRT cells): without effect

FC(F)(F)c1cc(NC(=S)NCCN(CCNC(=S)Nc2cc(C(F)(F)F)cc(C(F)(F)F)c2)CCNC(=S)Nc2cc(C(F)(F)F)cc(C(F)(F)F)c2)cc(C(F)(F)F)c1 [Compound 19]
anion transport in control F508del-CFTR-YFP-FRT cells [1]: mediated anion transport | additivity of anion transport to rescue of F508del-CFTR [1]: additive | anion transport when added together with forskolin and ivacaftor [1]: increased further the amount of anion transport | effect of CFTRinh-172 on anion transport by anionophore (WT-CFTR-YFP-FRT cells): inhibited the activity

CCOC(=O)[C@]12CC[C@@H](NC(=S)Nc3cc(C(F)(F)F)cc(C(F)(F)F)c3)C[C@@H]1C[C@@H](NC(=S)Nc1cc(C(F)(F)F)cc(C(F)(F)F)c1)CC2 [Compound 15]
anion transport in control F508del-CFTR-YFP-FRT cells [1]: mediated anion transport | additivity of anion transport to rescue of F508del-CFTR [1]: additive | anion transport when added together with forskolin and ivacaftor [1]: increased further the amount of anion transport | effect of CFTRinh-172 on anion transport by anionophore (WT-CFTR-YFP-FRT cells): small, albeit significant, increase
